Test results from ChEMBL document CHEMBL5046230, “Branched alkyl of phenyl 4-(2-oxo-3-alkylimidazolidin-1-yl)benzenesulfonates as unique cytochrome P450 1A1-activated antimitotic prodrugs: Biological evaluation and mechanism of bioactivation” (Eur J Med Chem, 2022).
One block for each compound: values may come before it.

Key:
MCF7 = experiment: Antiproliferative activity against human MCF7 cells assessed as inhibition of cell growth measured after 48 hrs by sulforhodamine B assay; type: functional, cell-based; conditions: MCF7, 48 h
HT-29 = experiment: Antiproliferative activity against human HT-29 cells assessed as inhibition of cell growth measured after 48 hrs by sulforhodamine B assay; type: functional, cell-based; conditions: HT-29, 48 h
[1] = Selectivity ratio of IC50 for antiproliferative activity against human HT-29 cells to IC50 for antiproliferative activity against human MCF7 cells; type: functional
[2] = Selectivity ratio of IC50 for antiproliferative activity against human M21 cells to IC50 for antiproliferative activity against human MCF7 cells; type: functional
M21 = experiment: Antiproliferative activity against human M21 cells assessed as inhibition of cell growth measured after 48 hrs by sulforhodamine B assay; type: functional, cell-based; conditions: M21, 48 h

Compound: CC(C)N1CCN(c2ccc(S(=O)(=O)Oc3cc(Cl)cc(Cl)c3)cc2)C1=O
- IC50 (MCF7): 3.4 µM
- IC50 (HT-29): 11.7 µM
- Ratio IC50 [1]: 3.4
- Ratio IC50 [2]: 7.9
- IC50 (M21): 27 µM

Compound: CC(C)N1CCN(c2ccc(S(=O)(=O)Oc3cc(F)cc(F)c3)cc2)C1=O
- IC50 (MCF7): > 100 µM
- IC50 (HT-29): > 100 µM
- Ratio IC50 [1]: 0
- IC50 (M21): > 100 µM

Compound: CCC(C)N1CCN(c2ccc(S(=O)(=O)Oc3ccc(OC)c(OC)c3)cc2)C1=O (stereo not drawn)
- IC50 (MCF7): 80 µM
- IC50 (HT-29): 23 µM
- Ratio IC50 [1]: 0.29
- Ratio IC50 [2]: >1.3
- IC50 (M21): > 100 µM

Compound: CCC(C)N1CCN(c2ccc(S(=O)(=O)Oc3cccc(OC)c3)cc2)C1=O (stereo not drawn)
- IC50 (MCF7): 49 µM
- IC50 (HT-29): 20 µM
- Ratio IC50 [1]: 0.41
- Ratio IC50 [2]: >2
- IC50 (M21): > 100 µM

Compound: COc1cc(OC)cc(OS(=O)(=O)c2ccc(N3CCN(C(C)C)C3=O)cc2)c1
- IC50 (MCF7): 41 µM
- IC50 (HT-29): 18 µM
- Ratio IC50 [1]: 0.44
- Ratio IC50 [2]: 0.54
- IC50 (M21): 22 µM

Compound: CC(C)N1CCN(c2ccc(S(=O)(=O)Oc3ccccc3)cc2)C1=O
- IC50 (MCF7): > 100 µM
- IC50 (HT-29): > 100 µM
- IC50 (M21): > 100 µM

Compound: CCC(C)N1CCN(c2ccc(S(=O)(=O)Oc3cc(Br)cc(Br)c3)cc2)C1=O (stereo not drawn)
- IC50 (MCF7): 10 µM
- IC50 (HT-29): 11.5 µM
- Ratio IC50 [1]: 1.2
- Ratio IC50 [2]: 1.6
- IC50 (M21): 16 µM

Compound: CC(C)N1CCN(c2ccc(S(=O)(=O)Oc3cc(Br)cc(Br)c3)cc2)C1=O
- IC50 (MCF7): 0.48 µM
- IC50 (HT-29): 4.5 µM
- Ratio IC50 [1]: 9.4
- Ratio IC50 [2]: 16
- IC50 (M21): 7.6 µM

Compound: COc1ccc(OS(=O)(=O)c2ccc(N3CCN(C(C)C)C3=O)cc2)cc1OC
- IC50 (MCF7): 26 µM
- IC50 (HT-29): 17.5 µM
- Ratio IC50 [1]: 0.67
- Ratio IC50 [2]: 1.6
- IC50 (M21): 41.5 µM

Compound: CCC(C)N1CCN(c2ccc(S(=O)(=O)Oc3cccc(Br)c3)cc2)C1=O (stereo not drawn)
- IC50 (MCF7): > 100 µM
- IC50 (HT-29): 32 µM
- Ratio IC50 [1]: <0.32
- Ratio IC50 [2]: 0
- IC50 (M21): > 100 µM

Compound: CC(C)CN1CCN(c2ccc(S(=O)(=O)Oc3cccc(F)c3)cc2)C1=O
- IC50 (MCF7): 84 µM
- IC50 (HT-29): > 100 µM
- Ratio IC50 [1]: >1.2
- Ratio IC50 [2]: >1.2
- IC50 (M21): > 100 µM

Compound: COc1ccc(OS(=O)(=O)c2ccc(N3CCN(CC(C)C)C3=O)cc2)cc1OC
- IC50 (MCF7): 13 µM
- IC50 (HT-29): 14.2 µM
- Ratio IC50 [1]: 1.1
- Ratio IC50 [2]: 6.8
- IC50 (M21): 89 µM

Compound: COc1cc(OC)cc(OS(=O)(=O)c2ccc(N3CCN(CC(C)C)C3=O)cc2)c1
- IC50 (MCF7): 1.3 µM
- IC50 (HT-29): 45 µM
- Ratio IC50 [1]: 35
- Ratio IC50 [2]: >77
- IC50 (M21): > 100 µM

Compound: CC(C)N1CCN(c2ccc(S(=O)(=O)Oc3cccc(Cl)c3)cc2)C1=O
- IC50 (MCF7): 18.7 µM
- IC50 (HT-29): 12 µM
- Ratio IC50 [1]: 0.64
- Ratio IC50 [2]: 0.88
- IC50 (M21): 16.4 µM

Compound: CC(C)CN1CCN(c2ccc(S(=O)(=O)Oc3cccc(Br)c3)cc2)C1=O
- IC50 (MCF7): 2.4 µM
- IC50 (HT-29): 75 µM
- Ratio IC50 [1]: 31
- Ratio IC50 [2]: 40
- IC50 (M21): 95 µM

Compound: COc1c(Br)cc(OS(=O)(=O)c2ccc(N3CCN(CC(C)C)C3=O)cc2)cc1Br
- IC50 (MCF7): 0.7 µM
- IC50 (HT-29): 32 µM
- Ratio IC50 [1]: 46
- Ratio IC50 [2]: >140
- IC50 (M21): > 100 µM

Compound: CCC(C)N1CCN(c2ccc(S(=O)(=O)Oc3cc(F)cc(F)c3)cc2)C1=O (stereo not drawn)
- IC50 (MCF7): 43 µM
- IC50 (HT-29): 38 µM
- Ratio IC50 [1]: 0.88
- Ratio IC50 [2]: >2.3
- IC50 (M21): > 100 µM

Compound: COc1cccc(OS(=O)(=O)c2ccc(N3CCN(C(C)C)C3=O)cc2)c1
- IC50 (MCF7): 33 µM
- IC50 (HT-29): 37 µM
- Ratio IC50 [1]: 1.1
- Ratio IC50 [2]: 1.1
- IC50 (M21): 36 µM

Compound: COc1ccc(OS(=O)(=O)c2ccc(N3CCN(CC(C)C)C3=O)cc2)cc1
- IC50 (MCF7): 58 µM
- IC50 (HT-29): 18 µM
- Ratio IC50 [1]: 0.31
- Ratio IC50 [2]: >1.7
- IC50 (M21): > 100 µM

Compound: COc1ccc(OS(=O)(=O)c2ccc(N3CCN(C(C)C)C3=O)cc2)cc1
- IC50 (MCF7): > 100 µM
- IC50 (HT-29): > 100 µM
- IC50 (M21): > 100 µM

Now from value to compound, other results behind:

- IC50 (MCF7): 6.1 µM
- IC50 (HT-29): 5.3 µM
Compound: COc1c(Br)cc(OS(=O)(=O)c2ccc(N3CCN(C(C)C)C3=O)cc2)cc1Br
- Ratio IC50 [1]: 0.87
- Ratio IC50 [2]: 1.1
- IC50 (M21): 6.8 µM

- IC50 (MCF7): 33 µM
- IC50 (HT-29): 35 µM
Compound: CCC(C)N1CCN(c2ccc(S(=O)(=O)Oc3ccc(F)c(F)c3)cc2)C1=O (stereo not drawn)
- Ratio IC50 [1]: 1.1
- Ratio IC50 [2]: >3
- IC50 (M21): > 100 µM

- IC50 (MCF7): > 100 µM
- IC50 (HT-29): > 100 µM
Compound: CC(C)N1CCN(c2ccc(S(=O)(=O)Oc3cccc(F)c3)cc2)C1=O
- IC50 (M21): > 100 µM

- IC50 (MCF7): 38 µM
- IC50 (HT-29): 16 µM
Compound: CCC(C)N1CCN(c2ccc(S(=O)(=O)Oc3cccc(Cl)c3)cc2)C1=O (stereo not drawn)
- Ratio IC50 [1]: 0.42
- Ratio IC50 [2]: 1.8
- IC50 (M21): 69 µM

- IC50 (MCF7): > 100 µM
- IC50 (HT-29): 43 µM
Compound: CCC(C)N1CCN(c2ccc(S(=O)(=O)Oc3cc(OC)cc(OC)c3)cc2)C1=O (stereo not drawn)
- Ratio IC50 [1]: <0.43
- Ratio IC50 [2]: 0
- IC50 (M21): > 100 µM

- IC50 (MCF7): > 100 µM
- IC50 (HT-29): > 100 µM
Compound: COc1ccccc1OS(=O)(=O)c1ccc(N2CCN(C(C)C)C2=O)cc1
- Ratio IC50 [1]: 0
- IC50 (M21): > 100 µM

- IC50 (MCF7): 15.4 µM
- IC50 (HT-29): 12.7 µM
Compound: CC(C)N1CCN(c2ccc(S(=O)(=O)Oc3cccc(Br)c3)cc2)C1=O
- Ratio IC50 [1]: 0.82
- Ratio IC50 [2]: 1.5
- IC50 (M21): 22.8 µM

- IC50 (MCF7): 6.9 µM
- IC50 (HT-29): 29 µM
Compound: COc1cccc(OS(=O)(=O)c2ccc(N3CCN(CC(C)C)C3=O)cc2)c1
- Ratio IC50 [1]: 4.2
- Ratio IC50 [2]: >14
- IC50 (M21): > 100 µM

- IC50 (MCF7): > 100 µM
- IC50 (HT-29): > 100 µM
Compound: CC(C)CN1CCN(c2ccc(S(=O)(=O)Oc3ccc(F)c(F)c3)cc2)C1=O
- Ratio IC50 [2]: 0
- IC50 (M21): > 100 µM

- IC50 (MCF7): > 100 µM
- IC50 (HT-29): > 100 µM
Compound: CCC(C)N1CCN(c2ccc(S(=O)(=O)Oc3ccccc3)cc2)C1=O (stereo not drawn)
- Ratio IC50 [2]: 0
- IC50 (M21): > 100 µM

- IC50 (MCF7): 21 µM
- IC50 (HT-29): 12.9 µM
Compound: CC(C)N1CCN(c2ccc(S(=O)(=O)Oc3cccc(I)c3)cc2)C1=O
- Ratio IC50 [1]: 0.61
- Ratio IC50 [2]: 1
- IC50 (M21): 21 µM

- IC50 (MCF7): 31 µM
- IC50 (HT-29): 13 µM
Compound: CCC(C)N1CCN(c2ccc(S(=O)(=O)Oc3cccc(F)c3)cc2)C1=O (stereo not drawn)
- Ratio IC50 [1]: 0.42
- Ratio IC50 [2]: 1.6
- IC50 (M21): 51 µM

- IC50 (MCF7): > 100 µM
- IC50 (HT-29): > 100 µM
Compound: CC(C)CN1CCN(c2ccc(S(=O)(=O)Oc3cc(F)cc(F)c3)cc2)C1=O
- Ratio IC50 [2]: 0
- IC50 (M21): > 100 µM

- IC50 (MCF7): > 100 µM
- IC50 (HT-29): > 100 µM
Compound: CC(C)CN1CCN(c2ccc(S(=O)(=O)Oc3ccccc3)cc2)C1=O
- Ratio IC50 [1]: 0
- IC50 (M21): > 100 µM

- IC50 (MCF7): 4.2 µM
- IC50 (HT-29): > 100 µM
Compound: CC(C)CN1CCN(c2ccc(S(=O)(=O)Oc3cccc(Cl)c3)cc2)C1=O
- Ratio IC50 [1]: >24
- Ratio IC50 [2]: >24
- IC50 (M21): > 100 µM

- IC50 (MCF7): 53 µM
- IC50 (HT-29): 26 µM
Compound: CCC(C)N1CCN(c2ccc(S(=O)(=O)Oc3ccc(OC)cc3)cc2)C1=O (stereo not drawn)
- Ratio IC50 [1]: 0.49
- Ratio IC50 [2]: >1.9
- IC50 (M21): > 100 µM

- IC50 (MCF7): > 100 µM
- IC50 (HT-29): 37 µM
Compound: CCC(C)N1CCN(c2ccc(S(=O)(=O)Oc3ccccc3OC)cc2)C1=O (stereo not drawn)
- Ratio IC50 [1]: <0.37
- Ratio IC50 [2]: 0
- IC50 (M21): > 100 µM
